These results are taken from ChEMBL document CHEMBL5325394, “What We Have Gained from Ibogaine: α3β4 Nicotinic Acetylcholine Receptor Inhibitors as Treatments for Substance Use Disorders” (J Med Chem, 2023).

Where a SMILES comes first, the peptide text is derived from it. Bridges are numbered along the chain shown (N, C = ends). Some results are limits rather than exact numbers.

The target of assay [1] is T1, Neuronal acetylcholine receptor subunit alpha-7 (Homo sapiens, UniProt P36544). The experiment in a line: Inhibition of nAChR alpha7 (unknown origin) by electrophysiology assay.
For assay [2], the target named is T2, Neuronal acetylcholine receptor; alpha4/beta2 (Homo sapiens, UniProt P17787+P43681). The experiment in a line: Inhibition of nAChR alpha4beta2 (unknown origin) by electrophysiology assay. In kind it is protein-complex assay.
Assay [3] deals with T3, Neuronal acetylcholine receptor; alpha3/beta4 (Homo sapiens, UniProt P30926+P32297). The experiment in a line: Inhibition of alpha3beta4 (unknown origin) by electrophysiology assay. Format: protein-complex assay.
For assay [4], the target named is Neuronal acetylcholine receptor; alpha3/beta2 (Homo sapiens, UniProt P17787+P32297). The experiment in a line: Inhibition of nAChR alpha3beta2 (unknown origin) by electrophysiology assay. In kind it is protein-complex assay.
Assay [5] has as its target T3, Neuronal acetylcholine receptor; alpha3/beta4. Nature of the assay: Antagonist activity at nAChR alpha3beta4 in human SH-SY5Y cells assessed as increase in intracellular calcium level preincubated for 10 mins followed by nicotine addition measured after 30 mins by FLIPR assay. In kind it is cell-based.
Assay [6] has as its target T1, Neuronal acetylcholine receptor subunit alpha-7. Nature of the assay: Antagonist activity at nAChR alpha7 in human SH-SY5Y cells assessed as increase in intracellular calcium level preincubated for 10 mins followed by choline addition measured after 30 mins by FLIPR assay. Format: cell-based.
The target is the same in assay [7]. Nature of the assay: Antagonist activity at alpha7 nAChRs in human SH-SY5Y cells assessed as increase in intracellular calcium level by FLIPR assay. Format: cell-based.
The target in assay [8] is T3, Neuronal acetylcholine receptor; alpha3/beta4. The experiment in a line: Inhibition of alpha3beta4 nAChRs (unknown origin). In kind it is protein-complex assay.
In another assay the target is Mu-type opioid receptor (Bos taurus, UniProt P79350). Nature of the assay: Displacement of [3H]-DAGO from calf cortex MOR receptor assessed as inhibition constant. In kind it is tissue-based.
The nature of assay [9]: Displacement of [3H]-GR-65,630 from 5-HT3 receptor in mouse NG-108 cells assessed as inhibition constant. Format: cell-based. Particulars: ng-108 cell.
A short description of assay [10]: Displacement of [3H]-BTX-B from bovine cortex sodium channel assessed as inhibition constant. Format: tissue-based, Bos taurus.
Assay [11] deals with T3, Neuronal acetylcholine receptor; alpha3/beta4. The experiment in a line: Displacement of [3H]imipramine from human alpha3beta4 nAChRs expressed in HEK293 cells assessed as inhibition constant incubated for 2 hrs by scintillation counter analysis. In kind it is cell-based.
The target is the same in assay [12]. The experiment in a line: Antagonist activity at human alpha3beta4 nAChRs expressed in HEK293 cells assessed as inhibition of (+/-)-epibatidine-induced Ca+2 influx incubated for 5 mins by FLIPR analysis. In kind it is cell-based.
Assay [13] has as its target Sigma intracellular receptor 2 (Bos taurus, UniProt Q3MHW7). Nature of the assay: Displacement of [3H]-DTG from calf hippocampus sigma 2 receptor assessed as inhibition constant. Format: tissue-based.
Assay [14] addresses T4, Muscarinic acetylcholine receptor M1 (Bos taurus, UniProt Q8WMX0).
T4 sequence (Q8WMX0 whole entry): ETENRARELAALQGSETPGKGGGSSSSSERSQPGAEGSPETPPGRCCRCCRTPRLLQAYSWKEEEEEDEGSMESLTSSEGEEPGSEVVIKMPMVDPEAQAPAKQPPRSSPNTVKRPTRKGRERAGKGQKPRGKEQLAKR
The experiment in a line: Displacement of [3H]-pirenzepine from calf cortex Muscarinic M1 receptor assessed as inhibition constant. In kind it is tissue-based.

Assay [15] deals with T1, Neuronal acetylcholine receptor subunit alpha-7. Nature of the assay: Inhibition of nAChR alpha7 receptor (unknown origin) assessed as inhibition of calcium flux.
The target of assay [16] is T2, Neuronal acetylcholine receptor; alpha4/beta2. Nature of the assay: Antagonist activity at alpha4beta2 nAChR in HEK293 cells by voltage-clamp based electrophysiological method. Format: cell-based.
Assay [17] addresses T3, Neuronal acetylcholine receptor; alpha3/beta4. The experiment in a line: Antagonist activity at recombinant alpha3beta4 nAChR in HEK293 cells by voltage-clamp based electrophysiological method. Format: cell-based.
Assay [18] can be described thus: Displacement of [3H]-DPDPE from calf caudate nucleus DOR receptor assessed as inhibition constant. Format: tissue-based, Bos taurus.
Assay [19] concerns the target T2, Neuronal acetylcholine receptor; alpha4/beta2. The experiment in a line: Inhibition of nAChR alpha4beta2 receptor (unknown origin). Format: protein-complex assay.

T1 sequence (P36544 whole entry): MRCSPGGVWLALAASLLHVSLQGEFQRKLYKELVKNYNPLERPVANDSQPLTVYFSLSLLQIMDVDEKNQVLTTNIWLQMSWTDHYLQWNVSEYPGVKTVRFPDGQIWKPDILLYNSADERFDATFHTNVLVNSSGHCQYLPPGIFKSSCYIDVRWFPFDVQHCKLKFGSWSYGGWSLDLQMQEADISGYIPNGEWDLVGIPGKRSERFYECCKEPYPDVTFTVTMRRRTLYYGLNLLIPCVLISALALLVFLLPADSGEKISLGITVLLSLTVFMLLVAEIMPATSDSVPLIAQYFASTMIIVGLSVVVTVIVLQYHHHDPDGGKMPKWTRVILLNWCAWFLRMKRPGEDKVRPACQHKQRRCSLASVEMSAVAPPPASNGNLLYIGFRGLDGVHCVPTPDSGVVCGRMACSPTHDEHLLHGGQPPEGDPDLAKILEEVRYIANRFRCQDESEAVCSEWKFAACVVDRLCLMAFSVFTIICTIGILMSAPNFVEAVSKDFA
T3 sequence (P30926 whole entry): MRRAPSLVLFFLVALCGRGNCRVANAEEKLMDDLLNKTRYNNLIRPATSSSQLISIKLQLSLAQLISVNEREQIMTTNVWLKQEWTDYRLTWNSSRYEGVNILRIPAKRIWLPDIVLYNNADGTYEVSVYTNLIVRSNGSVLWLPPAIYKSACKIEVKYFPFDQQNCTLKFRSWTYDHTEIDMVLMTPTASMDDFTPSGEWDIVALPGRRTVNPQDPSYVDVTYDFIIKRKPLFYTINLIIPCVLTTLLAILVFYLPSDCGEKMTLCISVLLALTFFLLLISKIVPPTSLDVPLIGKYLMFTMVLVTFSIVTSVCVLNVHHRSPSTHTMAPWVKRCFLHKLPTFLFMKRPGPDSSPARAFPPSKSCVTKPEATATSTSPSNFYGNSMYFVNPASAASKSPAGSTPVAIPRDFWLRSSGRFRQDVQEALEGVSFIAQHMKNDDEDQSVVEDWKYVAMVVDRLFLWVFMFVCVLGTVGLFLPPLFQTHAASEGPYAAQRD
T3 sequence (P32297 whole entry): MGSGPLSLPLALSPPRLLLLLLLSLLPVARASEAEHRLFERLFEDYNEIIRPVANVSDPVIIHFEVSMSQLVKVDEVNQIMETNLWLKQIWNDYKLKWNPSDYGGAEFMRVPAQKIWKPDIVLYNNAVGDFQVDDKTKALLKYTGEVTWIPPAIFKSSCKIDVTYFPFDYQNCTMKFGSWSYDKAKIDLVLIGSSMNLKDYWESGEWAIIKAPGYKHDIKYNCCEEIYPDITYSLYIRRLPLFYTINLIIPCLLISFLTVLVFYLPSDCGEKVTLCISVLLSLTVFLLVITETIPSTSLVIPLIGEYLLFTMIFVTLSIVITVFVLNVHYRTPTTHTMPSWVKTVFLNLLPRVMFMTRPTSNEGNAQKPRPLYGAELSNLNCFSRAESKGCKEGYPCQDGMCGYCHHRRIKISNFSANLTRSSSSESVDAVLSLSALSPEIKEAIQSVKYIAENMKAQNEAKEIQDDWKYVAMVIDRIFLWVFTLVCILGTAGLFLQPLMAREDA
T2 sequence (P17787 whole entry): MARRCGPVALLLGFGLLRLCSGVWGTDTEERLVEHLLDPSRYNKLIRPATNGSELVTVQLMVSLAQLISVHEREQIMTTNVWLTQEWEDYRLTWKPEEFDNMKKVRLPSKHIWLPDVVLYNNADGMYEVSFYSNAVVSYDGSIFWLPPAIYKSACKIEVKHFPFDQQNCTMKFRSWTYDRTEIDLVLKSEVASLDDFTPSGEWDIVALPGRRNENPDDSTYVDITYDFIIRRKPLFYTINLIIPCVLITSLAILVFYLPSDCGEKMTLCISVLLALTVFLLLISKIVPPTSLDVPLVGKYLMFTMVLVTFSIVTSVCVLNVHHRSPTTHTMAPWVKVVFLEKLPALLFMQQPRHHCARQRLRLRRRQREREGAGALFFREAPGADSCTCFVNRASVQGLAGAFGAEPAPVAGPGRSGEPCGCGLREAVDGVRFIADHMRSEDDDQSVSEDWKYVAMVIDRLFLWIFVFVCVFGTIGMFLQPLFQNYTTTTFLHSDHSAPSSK
T2 sequence (P43681 whole entry): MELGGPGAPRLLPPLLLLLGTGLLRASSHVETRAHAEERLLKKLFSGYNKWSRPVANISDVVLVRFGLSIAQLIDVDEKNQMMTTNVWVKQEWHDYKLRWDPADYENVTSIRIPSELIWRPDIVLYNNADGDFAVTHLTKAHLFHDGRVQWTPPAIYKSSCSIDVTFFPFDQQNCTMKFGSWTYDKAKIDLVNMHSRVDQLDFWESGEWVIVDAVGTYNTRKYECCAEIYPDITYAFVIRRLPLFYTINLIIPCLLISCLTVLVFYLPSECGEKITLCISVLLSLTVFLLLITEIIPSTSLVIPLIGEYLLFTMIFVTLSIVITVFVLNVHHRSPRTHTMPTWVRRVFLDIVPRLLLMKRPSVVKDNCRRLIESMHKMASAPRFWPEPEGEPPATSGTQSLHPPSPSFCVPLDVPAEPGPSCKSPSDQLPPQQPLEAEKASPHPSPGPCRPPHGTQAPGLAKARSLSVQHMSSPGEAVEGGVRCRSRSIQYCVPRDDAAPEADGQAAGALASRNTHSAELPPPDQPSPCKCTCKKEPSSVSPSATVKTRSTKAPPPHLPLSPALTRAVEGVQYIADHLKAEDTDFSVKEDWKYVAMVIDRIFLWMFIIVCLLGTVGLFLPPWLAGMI
Sequence of Sigma intracellular receptor 2 (Q3MHW7 whole entry): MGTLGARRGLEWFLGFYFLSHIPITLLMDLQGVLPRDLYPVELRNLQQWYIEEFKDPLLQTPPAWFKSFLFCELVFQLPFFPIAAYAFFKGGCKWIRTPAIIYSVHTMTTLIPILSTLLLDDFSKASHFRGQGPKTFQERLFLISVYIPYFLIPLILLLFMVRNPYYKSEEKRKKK
Sequence of Mu-type opioid receptor (P79350 whole entry): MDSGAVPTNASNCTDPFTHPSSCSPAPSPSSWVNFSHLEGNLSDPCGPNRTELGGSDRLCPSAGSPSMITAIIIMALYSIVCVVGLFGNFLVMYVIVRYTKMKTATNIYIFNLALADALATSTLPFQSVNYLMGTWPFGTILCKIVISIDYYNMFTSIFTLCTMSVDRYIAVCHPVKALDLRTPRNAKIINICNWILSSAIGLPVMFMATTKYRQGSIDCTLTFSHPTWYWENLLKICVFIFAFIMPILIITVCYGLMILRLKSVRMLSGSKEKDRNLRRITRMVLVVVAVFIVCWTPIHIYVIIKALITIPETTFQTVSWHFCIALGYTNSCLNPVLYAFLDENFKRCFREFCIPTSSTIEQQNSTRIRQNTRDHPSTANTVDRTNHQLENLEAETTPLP
Sequence of Neuronal acetylcholine receptor; alpha3/beta2 (P17787 whole entry): as the sequence (P17787 whole entry) above
Sequence of Neuronal acetylcholine receptor; alpha3/beta2 (P32297 whole entry): as the sequence (P32297 whole entry) above

On to `C[C@@H]1NC(=O)[C@H](Cc2ccccc2)NC(=O)[C@@H]2CSSC[C@H](NC(=O)CN)C(=O)N[C@@H](CSSC[C@@H](C(N)=O)NC(=O)[C@H](CC(=O)O)NC(=O)[C@@H]3CCCN3C(=O)[C@H](CC(N)=O)NC(=O)[C@H]([C@@H](C)O)NC1=O)C(=O)N[C@@H](CO)C(=O)N[C@@H](Cc1ccc(O)cc1)C(=O)N1CCC[C@H]1C(=O)N1CCC[C@H]1C(=O)N2`, for which the IC50 in assay [1] is more than 100 µM; in assay [2], more than 100 µM; in [3], 0.77 µM; in assay [4], more than 100 µM.
In the case of `CC[C@H](C)[C@@H]1NC(=O)[C@H](CC(N)=O)NC(=O)[C@@H]2CCCN2C(=O)[C@H](CC(N)=O)NC(=O)[C@H](CC(C)C)NC(=O)[C@H](C(C)C)NC(=O)[C@H](Cc2ccccc2)NC(=O)[C@@H]2CSSC[C@H](NC(=O)CNC(=O)[C@@H](N)CO)C(=O)N[C@@H](CSSC[C@@H](C(=O)O)NC1=O)C(=O)N[C@@H](CO)C(=O)N[C@@H](CC(N)=O)C(=O)N1CCC[C@H]1C(=O)N[C@@H](C)C(=O)N2` (H-SGCCSNPACFVLNPNIC-OH; disulfide 3-9, 4-17), the IC50 was 0.41 µM in assay [5] and more than 100 µM in [6].
Turning to `CC[C@H](C)[C@@H]1NC(=O)[C@H](CC(N)=O)NC(=O)[C@@H]2CCCN2C(=O)[C@H](CC(N)=O)NC(=O)[C@H](CC(N)=O)NC(=O)[C@H](C(C)C)NC(=O)[C@H](CCSC)NC(=O)[C@@H]2CSSC[C@H](NC(=O)CNC(=O)[C@@H](N)CO)C(=O)N[C@@H](CSSC[C@@H](C(=O)O)NC1=O)C(=O)N[C@@H](CO)C(=O)N[C@@H](CC(N)=O)C(=O)N1CCC[C@H]1C(=O)N[C@@H](C)C(=O)N2` (H-SGCCSNPACMVNNPNIC-OH; disulfide 3-9, 4-17), the IC50 in assay [5] was determined as 0.44 µM; in [6], 0.242 µM.
Turning to `CC[C@H](C)[C@@H]1NC(=O)[C@H](CC(N)=O)NC(=O)[C@@H]2CCCN2C(=O)[C@H](CC(N)=O)NC(=O)[C@H](CC(N)=O)NC(=O)[C@H](C(C)C)NC(=O)[C@H](CCCNC(=N)N)NC(=O)[C@@H]2CSSC[C@H](NC(=O)CNC(=O)[C@@H](N)CO)C(=O)N[C@@H](CSSC[C@@H](C(=O)O)NC1=O)C(=O)N[C@@H](CO)C(=O)N[C@@H](CC(N)=O)C(=O)N1CCC[C@H]1C(=O)N[C@@H](C)C(=O)N2` (H-SGCCSNPACRVNNPNIC-OH; disulfide 3-9, 4-17), the IC50 in assay [7] is more than 0.01 µM.
`CC(C)C[C@@H]1NC(=O)[C@H](C(C)C)NC(=O)[C@H](C)NC(=O)[C@@H]2CSSC[C@H](NC(=O)CN)C(=O)N[C@@H](CSSC[C@@H](C(=O)O)NC(=O)[C@H](Cc3ccc(O)cc3)NC1=O)C(=O)N[C@@H](CO)C(=O)N[C@@H]([C@@H](C)O)C(=O)N1CCC[C@H]1C(=O)N1CCC[C@H]1C(=O)N2` (H-GCCSTPPCAVLYC-OH; disulfide 2-8, 3-13): the IC50 in assay [8] came to 0.0277 µM.
`COCC[C@H]1C[C@H]2CN3CCc4c([nH]c5ccc(OC)cc45)[C@](C(=O)OC)(C2)[C@H]13` (racemic): the Ki was 0.0011 µM on Mu-type opioid receptor; 0.0038 µM in [9]; 0.0064 µM in [10]; 0.4 µM in assay [11]; 0.013 µM in assay [13]; 0.032 µM in assay [14]. The Ki in assay [18] stood at 0.0035 µM. In addition, the IC50 in [12] is 1.47 µM; in [15] it was 34.7 µM; in assay [16], more than 20 µM; in [17], 0.75 µM; in assay [19] it was 6.3 µM.
